Our source for the IC50 and EC50 values is patent US10081631B2, “2-(1H-indazol-3-yl)-1H-imidazo[4,5-C]pyridine and therapeutic uses thereof” (Samumed, LLC, priority 2014, dated 2018).

pEC50, pIC50: −log10 of the molar value.

In general, pIC50 refers to the IC50 on a negative log10 scale, so that one unit is a factor of ten. A higher pIC50 goes with a small IC50. What is called pEC50 is the negative decadic logarithm of the EC50, by convention in mol/L. A higher pEC50 goes with a small EC50.

Experiment [1] has as its system Wnt activity (Sp5-Luc reporter, SW480 colon carcinoma cells). The experiment can be described thus: Screening assay for Wnt activity: Sp5-Luc reporter gene assay in SW480 cells. It counts as cell-based. As to conditions: Homo sapiens, 42 h incubation, luminescence. From the text: The screening assay for Wnt activity is described as follows. Reporter cell lines can be generated by stably transducing cancer cell lines (e.g., colon cancer) or primary cells (e.g., IEC-6 intestinal cells) with a lentiviral construct that includes a Wnt-responsive promoter driving expression of the firefly luciferase gene.
SW480 colon carcinoma cells were transduced with a lentiviral vector expressing luciferase with a human Sp5 promoter consisting of a sequence of eight TCF/LEF binding sites. SW480 cells stably expressing the Sp5-Luc reporter gene and a hygromycin resistance gene were selected by treatment with 150 μg/ml of hygromycin for 7 days. These stably transduced SW480 cells were expanded in cell culture and used for all further screening activities. For Sp5-Luc reporter gene assays, the cells were plated at 10,000 cells/well in 96-well plates with growth medium containing 10% fetal calf serum and incubated overnight at 37° C. and 5% CO2. Each compound was dissolved in DMSO as a 10 mM stock in standard j-vials and used to prepare compound source plates in dose-response format with 3-fold serial dilutions and a 10 mM top concentration. Compound transfer from serially diluted source plates to assay plates containing the cells was accomplished using a pintool (Multimek 96, Beckman equipped with V&P Scientific FP1S50H pins) based liquid handling protocol. This protocol used a slotted pin to transfer 50 nl of compound from a source plate well to an assay plate well containing 50 μl of cells in growth medium. […] Control wells received 50 nl of DMSO treatment for normalization and calculating IC50 values. The treated cells were incubated at 37° C. and 5% CO2 for an additional forty-two hours. Following incubation, the growth medium was removed and 50 μl of BrightGlo luminescence reagent (Promega) was added to each well of the 96-well assay plates. The plates were placed on an orbital shaker for 5 min and then luminescence was quantified on the Victor3 (Perkin Elmer) plate reader. Readings were normalized to DMSO only treated cells, and normalized activities were utilized for IC50 calculations using the dose-response log (inhibitor) vs. response-variable slope (four parameters) nonlinear regression feature available in GraphPad Prism 5.0 or 6.0.

The test system of experiment [2] is primary human fibroblasts derived from IPF patients (LL29 cells). The experiment can be described thus: Inhibition of fibrosis: TGF-β1-treated primary human fibroblasts from IPF patients (LL29), αSMA staining. It counts as cell-based. Particulars: Fibroblast, 96 h, TGF-β1 20 ng/mL, 4 days, % αSMA-positive cells. The text has this: The above synthesized compounds were screened using primary human fibroblasts (derived from IPF patients) treated with TGF-β1 to determine their ability to inhibit the fibrotic process.
Primary human fibroblasts derived from IPF patients (LL29 cells) [^1Xiaoqiu Liu, et. al., “Fibrotic Lung Fibroblasts Show Blunted Inhibition by cAMP Due to Deficient cAMP Response Element-Binding Protein Phosphorylation”, Journal of Pharmacology and Experimental Therapeutics (2005), 315(2), 678-687; ^2Watts, K. L., et. al., “RhoA signaling modulates cyclin D1 expression in human lung fibroblasts; implications for idiopathic pulmonary fibrosis”, Respiratory Research (2006), 7(1), 88] were obtained from American Type Culture Collection (ATCC) and expanded in F12 medium supplemented with 15% Fetal Bovine Serum and Penicillin/Streptomycin.
Each compound was dissolved in DMSO as a 10 mM stock and used to prepare compound source plates. Serial dilution (1:2, 11-point dose-response curves from 10 μM to 1.87 nM) and compound transfer was performed using the ECHO 550 (Labcyte, Sunnyvale, Calif.) into 384-well clear bottom assay plates (Greiner Bio-One) with appropriate DMSO backfill for a final DMSO concentration of 0.1%. LL29 cells were plated at 1,500 cells/well in 80 μl/well F12 medium supplemented with 1% Fetal Bovine Serum. One hour after addition of the cells, TGF-β1 (Peprotech; 20 ng/mL) was added to the plates to induce fibrosis (ref 1 and 2 above). Wells treated with TGF-β1 and containing DMSO were used as controls. Cells were incubated at 37° C. and 5% CO2 for 4 days. Following incubation for 4 days, SYTOX green nucleic acid stain (Life Technologies [Thermo Fisher Scientific]) was added to the wells at a final concentration of 1 uM and incubated at room temperature for 30 min. Cells were then fixed using 4% formaldehyde (Electron Microscopy Sciences), washed 3 times with PBS followed by blocking and permeabilization using 3% Bovine Serum Albumin (BSA; Sigma) and 0.3% Triton X-100 (Sigma) in PBS. Cells were then stained with antibody specific to α-smooth muscle actin (αSMA; Abcam) (ref 1 and 2 above) in 3% Bovine Serum Albumin (BSA; Sigma) and 0.3% Triton X-100 (Sigma) in PBS, and incubated overnight at 4° C. Cells were then washed 3 times with PBS, followed by incubation with Alexa Flor-647 conjugated secondary antibody (Life Technologies [Thermo Fisher Scientific]) and DAPI at room temperature for 1 hour. Cells were then washed 3 times with PBS and plates were sealed for imaging. αSMA staining was imaged by excitation at 630 nm and emission at 665 nm and quantified using the Compartmental Analysis program on the CellInsight CX5 (Thermo Scientific). Dead or apoptotic cells were excluded from analysis based on positive SYTOX green staining. % of total cells positive for αSMA were counted in each well and normalized to the average of 11 wells treated with TGF-β1 on the same plate using Dotmatics' Studies Software. The normalized averages (fold change over untreated) of 3 replicate wells for each compound concentration were used to create dose-responses curves and EC50 values were calculated using non-linear regression curve fit in the Dotmatics' Studies Software. The EC50 values are reported.

In experiment [1], `CCC(=O)Nc1cncc(-c2ccc3[nH]nc(-c4nc5c(-c6cccc(F)c6)nccc5[nH]4)c3c2)c1` [Compound 1, N-(5-(3-(4-(3-Fluorophenyl)-1H-imidazo[4,5-c]pyridin-2-yl)-1H-indazol-5-yl)pyridin-3-yl)propionamide] gave a pIC50 of 9.00. Besides, the pEC50 in experiment [2] is 7.70.
For `CC(C)CC(=O)Nc1cncc(-c2ccc3[nH]nc(-c4nc5c(-c6cccc(F)c6)nccc5[nH]4)c3c2)c1` [Compound 2, N-(5-(3-(4-(3-Fluorophenyl)-1H-imidazo[4,5-c]pyridin-2-yl)-1H-indazol-5-yl)pyridin-3-yl)-3-methylbutanamide] the same measures were 8.30 and 8.05.
The like results for `CN(C)c1cncc(-c2ccc3[nH]nc(-c4nc5c(-c6cccc(F)c6)nccc5[nH]4)c3c2)c1` [Compound 7, 5-(3-(4-(3-Fluorophenyl)-1H-imidazo[4,5-c]pyridin-2-yl)-1H-indazol-5-yl)-N,N-dimethylpyridin-3-amine] were, in that order, 8.40 and 8.05.
With `CN(C)Cc1cncc(-c2ccc3[nH]nc(-c4nc5c(-c6cccc(F)c6)nccc5[nH]4)c3c2)c1` [Compound 13, 1-(5-(3-(4-(3-Fluorophenyl)-1H-imidazo[4,5-c]pyridin-2-yl)-1H-indazol-5-yl)pyridin-3-yl)-N,N-dimethylmethanamine], in experiment [1], the pIC50 is 9.00. In addition, the pEC50 in experiment [2] is 8.05.
The like results for `O=C(Nc1cncc(-c2ccc3[nH]nc(-c4nc5c(-c6cccc(F)c6)nccc5[nH]4)c3c2)c1)C1CC1` [Compound 19, N-(5-(3-(4-(3-Fluorophenyl)-1H-imidazo[4,5-c]pyridin-2-yl)-1H-indazol-5-yl)pyridin-3-yl)cyclopropanecarboxamide] were, in that order, 9.00 and 8.05.
On to `O=C(Nc1cncc(-c2ccc3[nH]nc(-c4nc5c(-c6cccc(F)c6)nccc5[nH]4)c3c2)c1)C1CCCC1` [Compound 21, N-(5-(3-(4-(3-Fluorophenyl)-1H-imidazo[4,5-c]pyridin-2-yl)-1H-indazol-5-yl)pyridin-3-yl)cyclopentanecarboxamide], for which the negative-log IC50 (pIC50) in experiment [1] is 7.89. The compound further showed a pEC50 in experiment [2] of 6.50.
The like results for `Fc1cccc(-c2nccc3[nH]c(-c4n[nH]c5ccc(-c6cncc(CN7CCC(F)(F)C7)c6)cc45)nc23)c1` [Compound 25, 2-(5-(5-((3,3-Difluoropyrrolidin-1-yl)methyl)pyridin-3-yl)-1H-indazol-3-yl)-4-(3-fluorophenyl)-1H-imidazo[4,5-c]pyridine] were, in that order, 8.00 and 7.25.
For `CC(C)CC(=O)Nc1cncc(-c2ccc3[nH]nc(-c4nc5c(-c6ccc(F)cc6)nccc5[nH]4)c3c2)c1` [Compound 28, N-(5-(3-(4-(4-Fluorophenyl)-1H-imidazo[4,5-c]pyridin-2-yl)-1H-indazol-5-yl)pyridin-3-yl)-3-methylbutanamide] the same measures were 8.05 and 8.05.
For `CC(C)(C)C(=O)Nc1cncc(-c2ccc3[nH]nc(-c4nc5c(-c6ccc(F)cc6)nccc5[nH]4)c3c2)c1` [Compound 34, N-(5-(3-(4-(4-fluorophenyl)-1H-imidazo[4,5-c]pyridin-2-yl)-1H-indazol-5-yl)pyridin-3-yl)pivalamide] the same measures were 7.89 and 8.05.
For the compound `CC(C)Nc1cncc(-c2ccc3[nH]nc(-c4nc5c(-c6ccc(F)cc6)nccc5[nH]4)c3c2)c1` [Compound 38, 5-(3-(4-(4-Fluorophenyl)-1H-imidazo[4,5-c]pyridin-2-yl)-1H-indazol-5-yl)-N-isopropylpyridin-3-amine], the pIC50 in experiment [1] was 7.37. In experiment [2], this compound had a negative logarithm of the EC50 (pEC50) of 6.90.
With `CC(C)CC(=O)Nc1cncc(-c2ccc3[nH]nc(-c4nc5c(-c6cc(F)cc(OCCN(C)C)c6)nccc5[nH]4)c3c2)c1` [Compound 2076, N-(5-(3-(4-(3-(2-(Dimethylamino)ethoxy)-5-fluorophenyl)-1H-imidazo[4,5-c]pyridin-2-yl)-1H-indazol-5-yl)pyridin-3-yl)-3-methylbutanamide], in experiment [1], the pIC50 is 6.43.
Same read-out and setting: next, `CC(C)CC(=O)Nc1cncc(-c2ccc3[nH]nc(-c4nc5c(-c6cc(F)cc(OCCN7CCCC7)c6)nccc5[nH]4)c3c2)c1` [Compound 2120, N-(5-(3-(4-(3-Fluoro-5-(2-(pyrrolidin-1-yl)ethoxy)phenyl)-1H-imidazo[4,5-c]pyridin-2-yl)-1H-indazol-5-yl)pyridin-3-yl)-3-methylbutanamide]: 6.52; `CC(C)CC(=O)Nc1cncc(-c2ccc3[nH]nc(-c4nc5c(-c6cc(O)cc(F)c6)nccc5[nH]4)c3c2)c1` [Compound 2164, N-(5-(3-(4-(3-Fluoro-5-hydroxyphenyl)-1H-imidazo[4,5-c]pyridin-2-yl)-1H-indazol-5-yl)pyridin-3-yl)-3-methylbutanamide]: 7.46; `COc1cc(F)cc(-c2nccc3[nH]c(-c4n[nH]c5ccc(-c6cncc(NC(=O)CC(C)C)c6)cc45)nc23)c1` [Compound 2208, N-(5-(3-(4-(3-Fluoro-5-methoxyphenyl)-1H-imidazo[4,5-c]pyridin-2-yl)-1H-indazol-5-yl)pyridin-3-yl)-3-methylbutanamide]: 7.70.
Still for that read-out and setting: next, `c1cncc(-c2ccc3[nH]nc(-c4nc5c(N6CCOCC6)nccc5[nH]4)c3c2)c1` [Compound 2272, 4-(2-(5-(Pyridin-3-yl)-1H-indazol-3-yl)-1H-imidazo[4,5-c]pyridin-4-yl) morpholine]: 7.70; `FC1(F)CCN(c2nccc3[nH]c(-c4n[nH]c5ccc(-c6cccnc6)cc45)nc23)CC1` [Compound 2273, 4-(4,4-Difluoropiperidin-1-yl)-2-(5-(pyridin-3-yl)-1H-indazol-3-yl)-1H-imidazo[4,5-c]pyridine]: 7.30; `CN1CCN(c2nccc3[nH]c(-c4n[nH]c5ccc(-c6cncc(F)c6)cc45)nc23)CC1` [Compound 2276, 2-(5-(5-Fluoropyridin-3-yl)-1H-indazol-3-yl)-4-(4-methylpiperazin-1-yl)-1H-imidazo[4,5-c]pyridine]: 6.36.
On the same count and under the same terms, next, `Fc1cncc(-c2ccc3[nH]nc(-c4nc5c(N6CCC(F)(F)CC6)nccc5[nH]4)c3c2)c1` [Compound 2277, 4-(4,4-Difluoropiperidin-1-yl)-2-(5-(5-fluoropyridin-3-yl)-1H-indazol-3-yl)-1H-imidazo[4,5-c]pyridine]: 6.50; `Cn1cc(-c2ccc3[nH]nc(-c4nc5c(N6CCC(F)(F)CC6)nccc5[nH]4)c3c2)cn1` [Compound 2281, 4-(4,4-Difluoropiperidin-1-yl)-2-(5-(1-methyl-1H-pyrazol-4-yl)-1H-indazol-3-yl)-1H-imidazo[4,5-c]pyridine]: 7.70.
